The source made the active and inactive calls. The rule behind the calls is not given here.
Legend:
Quadruplex DNA [1] = assay: Binding affinity to c-myc G-quadruplex DNA (unknown origin) in PBS buffer 40 mM K+ at 5 uM by spectrofluorimetric analysis; format: nucleic-acid assay
Quadruplex DNA [2] = assay: Effect on c-myc G-quadruplex DNA (unknown origin) configuration in water at 5 uM spectropolarimeter; format: ADME, nucleic-acid assay; settings: buffer
HT-1080 = assay: Cytotoxicity against human HT-1080 cells assessed as reduction in cell viability at 10 uM incubated for 72 hrs by MTT assay relative to control; format: functional
MCF7 = assay: Cytotoxicity against human MCF7 cells assessed as reduction in cell viability at 10 uM incubated for 72 hrs by MTT assay relative to control; format: functional
HeLa = assay: Cytotoxicity against human HeLa cells assessed as reduction in cell viability at 10 uM incubated for 72 hrs by MTT assay relative to control; format: functional
Quadruplex DNA [3] = assay: Effect on c-myc G-quadruplex DNA (unknown origin) configuration in PBS buffer 40 mM K+ at 5 uM by spectropolarimeter; format: ADME, nucleic-acid assay
Quadruplex DNA [4] = assay: Binding affinity to c-myc G-quadruplex DNA (unknown origin) in PBS buffer (40 mM K+, pH 7.4) by spectrofluorimetric analysis; format: nucleic-acid assay
[5] = Drug localization in nucleus of human HeLa cells at 10 uM incubated for 4 hrs by propidium iodide staining based by confocal microscopy; format: ADME
[6] = Binding affinity to dx12ab DNA sequence (unknown origin) by spectrofluorimetric analysis
[7] = Drug localization in nucleus of human MCF7 cells at 10 uM incubated for 4 hrs by propidium iodide staining based by confocal microscopy; format: ADME, cell-based; settings: mcf7, 4 h
[8] = Drug localization in cytoplasm of human MCF7 cells at 10 uM incubated for 4 hrs by propidium iodide staining based by confocal microscopy; format: ADME, cell-based; settings: mcf7, 4 h
[9] = Drug localization in nucleus of human HeLa cells at 10 uM incubated for 4 hrs in presence of urea by propidium iodide staining based by confocal microscopy; format: ADME
DNA = assay: Binding affinity to ds26 DNA sequence (unknown origin) by spectrofluorimetric analysis; format: nucleic-acid assay
[10] = Drug localization in nucleus of human MCF7 cells at 10 uM incubated for 4 hrs in presence of urea by propidium iodide staining based by confocal microscopy; format: ADME, cell-based; settings: mcf7, 4 h
[11] = Drug localization in cytoplasm of human HeLa cells at 10 uM incubated for 4 hrs by propidium iodide staining based by confocal microscopy; format: ADME
[12] = Binding affinity to TBA DNA sequence (unknown origin) by spectrofluorimetric analysis
[13] = Drug localization in human HeLa cells at 10 uM incubated for 4 hrs by MitoTracker Deep Red and Lyso-Tracker Red DND-99 staining based by confocal microscopy; format: ADME, cell-based

| SMILES | Activity (Quadruplex DNA [1]) | Activity (Quadruplex DNA [2]) | inhibition at 10 µM (HT-1080) | inhibition at 10 µM (MCF7) | inhibition at 10 µM (HeLa) | Activity (Quadruplex DNA [3]) | K (Quadruplex DNA [4]) | Drug uptake [5] | K [6] | Drug uptake [7] | Drug uptake [8] | Drug uptake [9] | K (DNA) | Drug uptake [10] | Drug uptake [11] | K [12] | Drug uptake [13] |
| --- | --- | --- | --- | --- | --- | --- | --- | --- | --- | --- | --- | --- | --- | --- | --- | --- | --- |
| O=C1C=C(c2ccccn2)N2C=CC=CC12c1ccccn1 (stereo not given) | Active | Not Active | 8.5% | 7.9% | 3.7% | Not Active |  |  |  |  |  |  |  |  |  |  |  |
| O=C1C=C(c2cccnc2)N2C=CC=CC12c1ccccn1 (stereo not given) | Active | Not Active | 30.3% | 16.5% | 3% | Not Active |  |  |  |  |  |  |  |  |  |  |  |
| O=C1C=C(c2ccccc2)N2C=CC=CC12C(F)(F)F (stereo not given) | Active | Not Active | 15.9% | 18.7% | -4.7% | Not Active | inactive |  |  |  |  |  |  |  |  |  |  |
| O=C1C=C(c2ccc([N+](=O)[O-])cc2)N2C=CC=CC12c1ccccn1 (stereo not given) | Active | Not Active | -4.2% | 12.5% | 2.9% | Not Active | inactive |  |  |  |  |  |  |  |  |  |  |
| O=C1C=C(c2ccc3ccccc3c2)N2C=CC=CC12C(F)(F)F (stereo not given) | Active | Not Active | 2.9% | -11.9% | -1.3% | Not Active |  |  |  |  |  |  |  |  |  |  |  |
| O=C1C=C(c2ccncc2)N2C=CC=CC12c1ccccn1 (stereo not given) | Active | Not Active | 1.8% | 19.3% | 5.9% | Not Active |  |  |  |  |  |  |  |  |  |  |  |
| COc1ccc(C2=CC(=O)C3(c4ccccn4)C=CC=CN23)cc1 (stereo not given) | Active | Not Active | 46.1% | 0.6% | 3.2% | Not Active |  |  |  |  |  |  |  |  |  |  |  |
| O=C1C=C(c2ccc3ccccc3c2)N2C=CC=CC12c1ccccn1 (stereo not given) | Active | Not Active | 30.4% | 24.3% | 11.1% | Not Active |  | Active | inactive | Active | Active | Active | inactive | Active | Active | inactive | Active |
| O=c1[nH]cc(F)c(=O)[nH]1 [FLUOROURACIL] |  |  | 65.3% | 41.9% | 44% |  |  |  |  |  |  |  |  |  |  |  |  |
| O=C1C=C(c2ccc(Cl)cc2)N2C=CC=CC12c1ccccn1 (stereo not given) | Active | Not Active | 15.6% | 4.7% | 16.6% | Not Active |  |  |  |  |  |  |  |  |  |  |  |
| O=C1C=C(c2ccc(-c3ccccc3)cc2)N2C=CC=CC12c1ccccn1 (stereo not given) | Active | Not Active | 32.2% | 14.3% | 5.7% | Not Active |  |  |  |  |  |  |  |  |  |  |  |
